Source: US20260152777A1, “METHOD FOR PRODUCING EPIGALLOCATECHIN GALLATE MONOGLUCOSIDE” (GIVAUDAN SA, priority 2022, published 2026)
“Also recorded” adds a separate entry of the source.

Tests used:
[1] = tested on: Normal Human Epidermal Keratinocytes (NHEKs); assay: Antioxidant activity: ROS production in keratinocytes stressed with TBP (DCFH-DA probe); assay type: cell-based; settings: at 0.1%; TBP column = 100, Untreated = 27.5
Description: A 96 wells-plate was coated with a collagen I solution at 50 μg/ml. Normal Human Epidermal Keratinocytes (NHEKs) were seeded at 20′000 cells per well with four replicates. Cells were incubated for 24 hours in complete medium (Epilife, Gibco) supplemented with Human keratinocyte growth supplements (HKGS) factor (Gibco) and 1% antibiotics (Sigma) at 37° C. with 5% CO2. […] The evolution of the fluorescence was followed for 1 hour.

[2] = Skin penetration by Raman spectroscopy (ex vivo); assay type: in vitro ADME, human
Description: At the end of the incubation period, the skin explants were frozen in Optimal Cutting Temperature (OCT; VWR) at −80° C. and then cut longitudinally using a cryotome with a thickness of 20 μm. For each explant, 3 tissue sections were selected and deposited on a CaF2 support for Raman imaging analysis. The processing of corrected data maps was performed by using a software based on least squares fitting method that operates in the Matlab environment. This method involves mathematical modeling of reference spectra in the overall spectral image to determine the contribution and distribution of these spectra within the image. The reference spectra were the modelled spectra of the following products: Aglycone, glucoside mixture, 4′-O-α-monoglucoside and untreated skin control.

[3] = tested on: melanogenesis pathway; settings: 0.01% (v/v), 24 h, NHEK-NHEM co-culture, normalized to B2M
Description: To evaluate the impact of preparation of the present invention on melanogenesis, a co-culture study with keratinocytes and melanocytes was conducted.
The cell culture was realized with primary cells isolated from biopsies. Cells were co-cultured with a ratio of 10 keratinocytes to 1 melanocyte. Both cell types were derived from a donor.
The product EGCG MONOG 0.01% was filtered and diluted in Keratinocyte Growth Medium 2 (supplied by Promocell).
Cells were seeded in 6-well plates in the presence of the Keratinocyte Growth Medium 2 for 24 h. After seeding, a treatment in the presence of EGCG MONOG 0.01% was applied for 24 h. Untreated wells were used as a basal reference in order to compare the impact of EGCG MONOG and gene expression after 24 h of incubation.
After treatment, the RNA from the cells were extracted using TRIzol™ (available from Sigma) and reverse-transcribed into cDNA. The cDNA was mixed with different primers of interest representative of the melanogenesis pathway (PrimePCR custom plate, pigmentation, Biorad). The expression of the mRNA was measured by semi-quantitative PCR on a Bio-Rad CFX96Real Time PCR System (available from BioRAD). The expression level of the mRNA was calculated and normalized with reference gene (B2M).
The values were reported relative to the untreated control to express an activating or inhibitory effect.

[4] = tested on: female Caucasian volunteers presenting brown spots on their hands; assay: Clinical study: age-spot removal by Raman spectroscopy (skin background fluorescence, melanin detection); assay type: in vivo, human; settings: for Melanin detection TBX − TB0 / Melanin detection Mean +/− SD: hands, twice daily, Caucasian women
Description: A double blind and placebo controlled clinical evaluation was carried out on 45 female Caucasian volunteers aged from 45 to 75 years. The volunteers were presenting brown spots on their hands. All the subjects participating in the study gave their informed consent at the beginning of the study. […] At D0 and D56, the anti-spot efficacy was analyzed by Raman spectroscopy. The compositions described in Example 12 were used. The set-up included a confocal Raman probe coupled to a dispersive Raman spectrograph. The excitation laser beam was sent to the remote probe via a 5 μm core-diameter fiber and the Raman signal was conveyed to the spectrograph via a 100 μm core-diameter fiber. The probe was equipped with a 100× long working distance objective operating in air. A piezo-electric device allowed to collect Z Raman profiles by assuring axial measurements from the surface down to a defined depth in the skin. A color video camera integrated in the probe permitted to visualize the skin surface. This camera is also useful to control the focalization of the laser on the skin. The spectrograph was equipped with a CCD (Coupled Charge Detector) of 1024×256 elements cooled by Peltier effect, and an 830 grooves/mm grating, which allows to cover a large spectral range from 550 to 3700 cm^−1 in a single shot acquisition, with a spectral resolution of about 6 cm^−1. The excitation source was a 660 nm laser diode and the power at the sample was set to 30 mW in accordance with protection standards for radiation. For protection against laser radiation, protective glasses were used. The 660 nm excitation was chosen as the optimal compromise between generation of parasitic fluorescence and sensitivity of the CCD camera over the whole spectral range. For skin characterization, the measurement of high wavenumber vibrations is important to access information on water content. For data acquisition, the device was controlled by the Labspec 5 software. The Z profiles consist of an in-depth scanning through the skin. Raman spectra were collected at different focus points, from skin surface Z=0 μm to 30 μm (under the skin surface) with 3 μm steps. The measurement depths are indicated in the following table with the corresponding acquisition times, leading to a time of 1 min for a complete profile. In total, 519 Raman profiles were recorded: 2 profiles per condition and for each area (unstained area and brown spot area). Each profile comprises 14 spectra, resulting in recorded 7266 spectra. These measurements were used for the evaluation of the spectroscopic marker of skin background fluorescence. This marker is associated with the degree of skin lightening: A decrease in this marker indicates a positive skin lightening effect, whereas a stability or an increase in this marker means that the product has no lightening effect on the skin. The pre-processing of spectral data was performed using Matlab 7.2 (The MathWorks Inc., USA). Aberrant profiles (bad S/N (signal/noise) ratio, fluorescence, incomplete profile with a large zero offset, saturation . . . ) were excluded from the data base. Each non-aberrant profile was submitted to background corrections, which allowed to clean up the Raman signal of the skin. These background corrections included smoothing spectra with a 9-mm Savitzky-Golay filter, spikes correction, […] the normalization on the intensity of the entire wavenumber range with a vectorial function. A baseline correction was not done in order to preserve the skin background fluorescence, which allows for the extraction of the skin fluorescence markers associated with the degree of skin lightening. After these pre-processing steps, corrected data were used to determine the spectra corresponding to the Stratum corneum surface. […] The skin properties were evaluated using Raman spectroscopy after 28 and 56 days of twice daily application.

With `O=C(O[C@@H]1Cc2c(O)cc(O)cc2O[C@@H]1c1cc(O)c(O[C@H]2O[C@H](CO)[C@@H](O)[C@H](O)[C@H]2O)c(O)c1)c1cc(O)c(O)c(O)c1` [epigallocatechin gallate 4′-O-α-monoglucoside] the “ROS, Mean (% of untreated)” value [1] was 33.75 % of untreated, the “skin penetration higher than that of the aglycone” value ([2]; 2%, 8 hours of topical application, skin explants, relative to aglycone) was “+90%” and the “skin penetration higher than that of the glucoside mixture” value ([2]; 2%, 8 hours of topical application, skin explants, relative to glucoside mixture) was “+20%”. For the same compound, the “quantity accumulated in the skin relative to the aglycone” value ([2]; at depth of about 65 µm) was “almost double that of the aglycone”, the “bioavailability in the skin” value ([2]; compared to aglycone (and glucoside mixture)) was “better skin bioavailability than the aglycone and the glucoside mixture; also recorded: much higher bioavailability in the skin than the respective aglycones” and the “depth of accumulation in the skin / skin penetration depth” value ([2]; skin explants, Raman) was “about 65 µm”. The “AP3B1 mRNA expression vs untreated co-culture” value [3] was −59%, the “DTNBP1 mRNA expression vs untreated co-culture” value [3] was −59% and the “EDNRB mRNA expression vs untreated co-culture” value [3] was −68%. For the same compound, the “F2RL1 mRNA expression vs untreated co-culture” value [3] was −49%, the “KIT mRNA expression vs untreated co-culture” value [3] was −93% and the “LYST mRNA expression vs untreated co-culture” value [3] was −48%. For the same compound, the “MC1R mRNA expression vs untreated co-culture” value [3] was −96%, the “MITF mRNA expression vs untreated co-culture” value [3] was −108% and the “PMEL mRNA expression vs untreated co-culture” value [3] was −212%. The “SOX10 mRNA expression vs untreated co-culture” value [3] was −60%, the “TYR mRNA expression vs untreated co-culture” value [3] was −58% and the “reduction of skin heterogeneity” value ([4]; Caucasian volunteers having pigmented spots on their hands) was “up to −24%”. The “Melanin detection TBX − TB0” value ([4]; product with 0.4% purified preparation, D 28) was −10.2 a.u and the “Melanin detection TBX − TB0” value ([4]; product with 0.4% purified preparation, D 56) was −20.4 a.u.
With `O=C1O[C@H]([C@@H](O)CO)C(O)=C1O` [Ascorbic acid, ascorbic acid] the “Melanin detection Mean +/− SD” value ([4]; ascorbic acid at 2%, D 0 (baseline)) was 49.80 ± 13.13 arbitrary unit, the “Melanin detection Mean +/− SD” value ([4]; ascorbic acid at 2%, D 28) was 52.05 ± 11.23 arbitrary unit and the “Melanin detection TBX − TB0” value ([4]; ascorbic acid at 2%, D 28) was “+2.25 a.u”. For the same compound, the “Melanin detection Mean +/− SD” value ([4]; ascorbic acid at 2%, D 56) was 32.28 ± 10.43 arbitrary unit and the “Melanin detection TBX − TB0” value ([4]; ascorbic acid at 2%, D 56) was −17.52 a.u.
